Laboratory results reported in article PMC7531004, “Discovery of gramicidin A analogues with altered activities by multidimensional screening of a one-bead-one-compound library” (Nature Communications, 2020).
Where a SMILES comes first, the peptide text is derived from it. [ ]: non-standard residue; d: D form. The star is where a group is joined. NHCH2CH2OH = OCCN*; For = O=C*

Columns and labels:
[1] = H+/Na+ transport assay of bead-derived peptides (one-point); assay type: biochemical; set-up: key: relative activity; mean of two control wells = 1.00; conditions: bead-derived peptide solution, EYPC/EYPG LUVs;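 note: relative to parent gramicidin A activity set to 1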
In short: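 Values are normalized fluorescence, with Triton X-100 defining 100% and untreated LUVs 0%, and the two control wells averaging 1.00. Vesicles carried 1.0 mM pyranine and included egg yolk phosphatidylglycerol. Peptides were incubated with them 30 min at room temperature.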

[2] = tested on: Streptococcus pyogenes SSI-9; experiment: Antibacterial activity assay of bead-derived peptides (three concentrations); assay type: cell-based; set-up: key: +++: inhibition by the 640-fold diluted peptide solution; ++: inhibition by the 160-fold diluted solution; +: inhibition by the 40-fold diluted solution; -: no inhibition; conditions: S. pyogenes, bead-derived peptide solution, three concentrations
In short: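 Bead-derived library peptide stocks in DMSO were tested undiluted and after 4- and 16-fold DMSO dilution against S. pyogenes SSI-9 (2 × 10^5 CFU/well) in cation-adjusted Mueller Hinton Broth with 5% laked horse blood. After 18 h at 37 °C, wells were scored for precipitation of grown cells.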

[3] = tested on: P388 mouse leukemia cells; conditions: 92 h
In short: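 First, library peptide stocks are diluted 250-fold in RPMI1640 with 10% heat-inactivated FBS. Next, they are mixed with P388 cells to give 1 × 10^4 cells/mL and incubated 92 h at 37 °C, 5% CO2. Finally, viability (%) is scored by WST-1 absorbance at 415 nm.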

CC(C)C[C@@H](NC(=O)[C@H](C)NC(=O)CNC(=O)[C@@H](NC=O)C(C)C)C(=O)N[C@@H](C)C(=O)N[C@@H](C(=O)N[C@H](C(=O)N[C@H](CC(C)C)C(=O)N[C@@H](Cc1c[nH]c2ccccc12)C(=O)N[C@H](CC(C)C)C(=O)N[C@@H](Cc1c[nH]c2ccccc12)C(=O)N[C@H](CC(C)C)C(=O)N[C@@H](Cc1c[nH]c2ccccc12)C(=O)N[C@@H](C(=O)N[C@@H](Cc1c[nH]c2ccccc12)C(=O)NCCO)C(C)C)C(C)C)[C@H](C)O [compound 11302] (For-VGA[dL]A[dT]V[dL]W[dL]W[dL]W[dV]W-NHCH2CH2OH)
H+/Na+ transport activity normalized against the value of 1 (1.00) [1]: 1.05 | antibacterial activity [2]: - | cell viability/% [3]: 49.1%

CNC(=O)C[C@@H](NC(=O)[C@@H](NC(=O)[C@H](NC(=O)[C@H](C)NC(=O)[C@H](NC(=O)[C@H](C)NC(=O)CNC(=O)[C@@H](NC=O)C(C)C)C(C)C)C(C)C)C(C)C)C(=O)N[C@@H](Cc1c[nH]c2ccccc12)C(=O)N[C@H](CC(C)C)C(=O)N[C@@H](Cc1c[nH]c2ccccc12)C(=O)N[C@H](CC(C)C)C(=O)N[C@@H](Cc1c[nH]c2ccccc12)C(=O)N[C@@H](C(=O)N[C@@H](Cc1c[nH]c2ccccc12)C(=O)NCCO)C(C)C [compound 5771] (For-VGA[dV]A[dV]V[dD](NHMe)W[dL]W[dL]W[dV]W-NHCH2CH2OH)
H+/Na+ transport activity normalized against the value of 1 (1.00) [1]: 1.46 | antibacterial activity [2]: - | cell viability/% [3]: 79.3%

CC(C)C[C@@H](NC(=O)[C@H](C)NC(=O)CNC(=O)[C@@H](NC=O)C(C)C)C(=O)N[C@@H](C)C(=O)N[C@H](CC(C)C)C(=O)N[C@H](C(=O)N[C@H](CC(C)C)C(=O)N[C@@H](Cc1c[nH]c2ccccc12)C(=O)N[C@@H](C(=O)N[C@@H](Cc1c[nH]c2ccccc12)C(=O)N[C@H](CC(C)C)C(=O)N[C@@H](Cc1c[nH]c2ccccc12)C(=O)N[C@H](CC(C)C)C(=O)N[C@@H](Cc1c[nH]c2ccccc12)C(=O)NCCO)[C@H](C)O)C(C)C [compound 7211] (For-VGA[dL]A[dL]V[dL]W[dT]W[dL]W[dL]W-NHCH2CH2OH)
H+/Na+ transport activity normalized against the value of 1 (1.00) [1]: 1.03 | antibacterial activity [2]: - | cell viability/% [3]: 100.0%

CNC(=O)C[C@@H](NC(=O)[C@H](Cc1c[nH]c2ccccc12)NC(=O)[C@H](NC(=O)[C@H](Cc1c[nH]c2ccccc12)NC(=O)[C@H](NC(=O)[C@H](Cc1c[nH]c2ccccc12)NC(=O)[C@@H](CC(C)C)NC(=O)[C@@H](NC(=O)[C@H](NC(=O)[C@H](C)NC(=O)[C@@H](CC(C)C)NC(=O)[C@H](C)NC(=O)CNC(=O)[C@@H](NC=O)C(C)C)C(C)C)C(C)C)C(C)C)C(C)C)C(=O)N[C@@H](Cc1c[nH]c2ccccc12)C(=O)NCCO [compound 4808] (For-VGA[dL]A[dV]V[dL]W[dV]W[dV]W[dD](NHMe)W-NHCH2CH2OH)
H+/Na+ transport activity normalized against the value of 1 (1.00) [1]: 1.02 | antibacterial activity [2]: - | cell viability/% [3]: 100.0%

CNC(=O)C[C@@H](NC(=O)[C@H](Cc1c[nH]c2ccccc12)NC(=O)[C@@H](CC(C)C)NC(=O)[C@H](Cc1c[nH]c2ccccc12)NC(=O)[C@H](NC(=O)[C@H](Cc1c[nH]c2ccccc12)NC(=O)[C@@H](CC(C)C)NC(=O)[C@@H](NC(=O)[C@H](NC(=O)[C@H](C)NC(=O)[C@H](NC(=O)[C@H](C)NC(=O)CNC(=O)[C@@H](NC=O)C(C)C)C(C)C)C(C)C)C(C)C)C(C)C)C(=O)N[C@@H](Cc1c[nH]c2ccccc12)C(=O)NCCO [compound 2526] (For-VGA[dV]A[dV]V[dL]W[dV]W[dL]W[dD](NHMe)W-NHCH2CH2OH)
H+/Na+ transport activity normalized against the value of 1 (1.00) [1]: 1.02 | antibacterial activity [2]: - | cell viability/% [3]: 100.0%

CC(C)C[C@@H](NC(=O)[C@H](Cc1c[nH]c2ccccc12)NC(=O)[C@H](NC(=O)[C@H](Cc1c[nH]c2ccccc12)NC(=O)[C@H](NC(=O)[C@H](Cc1c[nH]c2ccccc12)NC(=O)[C@@H](CC(C)C)NC(=O)[C@@H](NC(=O)[C@H](NC(=O)[C@H](C)NC(=O)[C@H](NC(=O)[C@H](C)NC(=O)CNC(=O)[C@@H](NC=O)C(C)C)[C@H](C)O)C(C)C)C(C)C)C(C)C)C(C)C)C(=O)N[C@@H](Cc1c[nH]c2ccccc12)C(=O)NCCO [compound 10500] (For-VGA[dT]A[dV]V[dL]W[dV]W[dV]W[dL]W-NHCH2CH2OH)
H+/Na+ transport activity normalized against the value of 1 (1.00) [1]: 1.14 | antibacterial activity [2]: - | cell viability/% [3]: 100.0%

CNC(=O)C[C@@H](NC(=O)[C@@H](NC(=O)[C@H](NC(=O)[C@H](C)NC(=O)[C@H](NC(=O)[C@H](C)NC(=O)CNC(=O)[C@@H](NC=O)C(C)C)C(C)C)C(C)C)C(C)C)C(=O)N[C@@H](Cc1c[nH]c2ccccc12)C(=O)N[C@@H](C(=O)N[C@@H](Cc1c[nH]c2ccccc12)C(=O)N[C@H](CC(C)C)C(=O)N[C@@H](Cc1c[nH]c2ccccc12)C(=O)N[C@H](CC(C)C)C(=O)N[C@@H](Cc1c[nH]c2ccccc12)C(=O)NCCO)C(C)C [compound 4049] (For-VGA[dV]A[dV]V[dD](NHMe)W[dV]W[dL]W[dL]W-NHCH2CH2OH)
H+/Na+ transport activity normalized against the value of 1 (1.00) [1]: 1.15 | antibacterial activity [2]: - | cell viability/% [3]: 100.0%

CC(C)C[C@@H](NC(=O)[C@H](C)NC(=O)[C@H](NC(=O)[C@H](C)NC(=O)CNC(=O)[C@@H](NC=O)C(C)C)[C@H](C)O)C(=O)N[C@H](C(=O)N[C@H](CC(C)C)C(=O)N[C@@H](Cc1c[nH]c2ccccc12)C(=O)N[C@@H](C(=O)N[C@@H](Cc1c[nH]c2ccccc12)C(=O)N[C@H](CC(C)C)C(=O)N[C@@H](Cc1c[nH]c2ccccc12)C(=O)N[C@@H](C(=O)N[C@@H](Cc1c[nH]c2ccccc12)C(=O)NCCO)C(C)C)[C@H](C)O)C(C)C [compound 1284] (For-VGA[dT]A[dL]V[dL]W[dT]W[dL]W[dV]W-NHCH2CH2OH)
H+/Na+ transport activity normalized against the value of 1 (1.00) [1]: 1.06 | antibacterial activity [2]: - | cell viability/% [3]: 71.2%

CC(C)[C@H](NC=O)C(=O)NCC(=O)N[C@@H](C)C(=O)N[C@@H](C(=O)N[C@@H](C)C(=O)N[C@@H](C(=O)N[C@H](C(=O)N[C@@H](C(=O)N[C@@H](Cc1c[nH]c2ccccc12)C(=O)N[C@@H](C(=O)N[C@@H](Cc1c[nH]c2ccccc12)C(=O)N[C@@H](C(=O)N[C@@H](Cc1c[nH]c2ccccc12)C(=O)N[C@@H](C(=O)N[C@@H](Cc1c[nH]c2ccccc12)C(=O)NCCO)C(C)C)C(C)C)C(C)C)C(C)C)C(C)C)C(C)C)C(C)C [compound 10276] (For-VGA[dV]A[dV]V[dV]W[dV]W[dV]W[dV]W-NHCH2CH2OH)
H+/Na+ transport activity normalized against the value of 1 (1.00) [1]: 1.04 | antibacterial activity [2]: + | cell viability/% [3]: 100.0%

CC(C)C[C@@H](NC(=O)[C@H](C)NC(=O)[C@H](NC(=O)[C@H](C)NC(=O)CNC(=O)[C@@H](NC=O)C(C)C)C(C)C)C(=O)N[C@H](C(=O)N[C@@H](C(=O)N[C@@H](Cc1c[nH]c2ccccc12)C(=O)N[C@@H](C(=O)N[C@@H](Cc1c[nH]c2ccccc12)C(=O)N[C@@H](C(=O)N[C@@H](Cc1c[nH]c2ccccc12)C(=O)N[C@H](CC(C)C)C(=O)N[C@@H](Cc1c[nH]c2ccccc12)C(=O)NCCO)C(C)C)C(C)C)C(C)C)C(C)C [compound 9192] (For-VGA[dV]A[dL]V[dV]W[dV]W[dV]W[dL]W-NHCH2CH2OH)
H+/Na+ transport activity normalized against the value of 1 (1.00) [1]: 1.07 | antibacterial activity [2]: - | cell viability/% [3]: 100.0%

CC(C)C[C@@H](NC(=O)[C@H](Cc1c[nH]c2ccccc12)NC(=O)[C@H](NC(=O)[C@@H](NC(=O)[C@H](NC(=O)[C@H](C)NC(=O)[C@H](NC(=O)[C@H](C)NC(=O)CNC(=O)[C@@H](NC=O)C(C)C)C(C)C)C(C)C)C(C)C)C(C)C)C(=O)N[C@@H](Cc1c[nH]c2ccccc12)C(=O)N[C@@H](C(=O)N[C@@H](Cc1c[nH]c2ccccc12)C(=O)N[C@@H](C(=O)N[C@@H](Cc1c[nH]c2ccccc12)C(=O)NCCO)C(C)C)C(C)C [compound 5570] (For-VGA[dV]A[dV]V[dV]W[dL]W[dV]W[dV]W-NHCH2CH2OH)
H+/Na+ transport activity normalized against the value of 1 (1.00) [1]: 1.26 | antibacterial activity [2]: ++ | cell viability/% [3]: 96.8%

CC(C)C[C@@H](NC(=O)[C@H](Cc1c[nH]c2ccccc12)NC(=O)[C@@H](CC(C)C)NC(=O)[C@@H](NC(=O)[C@H](NC(=O)[C@H](C)NC(=O)[C@H](NC(=O)[C@H](C)NC(=O)CNC(=O)[C@@H](NC=O)C(C)C)[C@H](C)O)C(C)C)C(C)C)C(=O)N[C@@H](Cc1c[nH]c2ccccc12)C(=O)N[C@@H](C(=O)N[C@@H](Cc1c[nH]c2ccccc12)C(=O)N[C@@H](C(=O)N[C@@H](Cc1c[nH]c2ccccc12)C(=O)NCCO)C(C)C)C(C)C [compound 11772] (For-VGA[dT]A[dV]V[dL]W[dL]W[dV]W[dV]W-NHCH2CH2OH)
H+/Na+ transport activity normalized against the value of 1 (1.00) [1]: 1.04 | antibacterial activity [2]: - | cell viability/% [3]: 100.0%

CC(C)C[C@@H](NC(=O)[C@H](C)NC(=O)[C@H](NC(=O)[C@H](C)NC(=O)CNC(=O)[C@@H](NC=O)C(C)C)C(C)C)C(=O)N[C@H](C(=O)N[C@@H](C(=O)N[C@@H](Cc1c[nH]c2ccccc12)C(=O)N[C@@H](C(=O)N[C@@H](Cc1c[nH]c2ccccc12)C(=O)N[C@H](CC(C)C)C(=O)N[C@@H](Cc1c[nH]c2ccccc12)C(=O)N[C@@H](C(=O)N[C@@H](Cc1c[nH]c2ccccc12)C(=O)NCCO)C(C)C)C(C)C)C(C)C)C(C)C [compound 12950] (For-VGA[dV]A[dL]V[dV]W[dV]W[dL]W[dV]W-NHCH2CH2OH)
H+/Na+ transport activity normalized against the value of 1 (1.00) [1]: 1.08 | antibacterial activity [2]: + | cell viability/% [3]: 97.0%
